Test results taken from patent US20240245714A1, “COMPOSITION AND METHODS USING COMBINATION OF NARH AND NR TO PRODUCE INTRACELLULAR NICOTINAMIDE ADENINE DINUCLEOTIDE (NAD+)” (SOCIETE DES PRODUITS NESTLE S.A., priority 2021, published 2024).

Key:
[1] = test system: MEF cells; assay: NAD+ induction in MEF cells; assay type: cell-based; details: MEF mouse fibroblast, 2 hours, NARH and NR 0.5 mM
Procedure: (§1) MEF cells were treated with dihydronicotinic acid riboside (NARH) and nicotinamide riboside (NR), alone or in combination for 2 hours. NARH and NR were used at the concentration of 0.5 mM. After treatment, cells were trypsinized and collected for NAD+ and protein content measurements. NAD+ was extracted and quantified using an EnzyChrom NAD/NADH Assay Kit (BioAssay Systems; #E2ND-100) according to the manufacturer's instructions. Proteins were quantified with BCA Protein Assay Kit (Pierce™; #23225). All results are expressed as mean+/−SD of n=2. NARH vs control P=0.7581; NR vs control P=0.5337; NRH+NR vs control P=0.0002.
as §1, with “#23225).” for “#23225). All results are expressed as mean+/−SD of n=2. NARH vs control P=0.7581; NR vs control P=0.5337; NRH+NR vs control P=0.0002.”

[2] = test system: RAW 264.7 cells; assay: NAD+ induction in RAW 264.7 cells; assay type: cell-based; details: RAW 264.7 mouse macrophages, 2 hours, NARH and NR 0.5 mM
Procedure: as §1, with “RAW 264.7” for “MEF”, “scraped” for “trypsinized”, “n=2-4.” for “n=2.”, “P=0.8130;” for “P=0.7581;”, “P=0.0788;” for “P=0.5337;”, “P=0.0087.” for “P=0.0002.”
as §1, with “RAW 264.7” for “MEF”, “scraped” for “trypsinized”, “#23225).” for “#23225). All results are expressed as mean+/−SD of n=2. NARH vs control P=0.7581; NR vs control P=0.5337; NRH+NR vs control P=0.0002.”

Compound	NAD+ induction [1]	NAD+ induction [2]
O=C(O)C1=CN([C@@H]2O[C@H](CO)[C@@H](O)[C@@H]2O)C=CC1 [NARH, dihydronicotinic acid riboside]	not NARH or NR alone, induces NAD+	not NARH or NR alone, induces NAD+
NC(=O)c1ccc[n+]([C@@H]2O[C@H](CO)[C@@H](O)[C@H]2O)c1 [NR, nicotinamide riboside]	not NARH or NR alone, induces NAD+	not NARH or NR alone, induces NAD+
